Among the data in ChEMBL document CHEMBL4321854, “Discovery of a First-in-Class Mitogen-Activated Protein Kinase Kinase 1/2 Degrader” (J Med Chem, 2019) are Activity, concentration and Ratio values, retold here.

For data set [1], the target named is T1, von Hippel-Lindau disease tumor suppressor/Dual specificity mitogen-activated protein kinase kinase 2 (Homo sapiens) (UniProt P36507+P40337). The data set is described as follows: Protac activity against VHL/MEK2 in human HT-29 cells harboring with BRAF V600E variant assessed as degradation of MEK2 at 3 to 5 uM after 24 hrs by Western blot analysis. It counts as cell-based. In general terms: A western blot detects proteins with antibodies after separation by electrophoresis.
T1 sequence (P36507 whole entry, looked up): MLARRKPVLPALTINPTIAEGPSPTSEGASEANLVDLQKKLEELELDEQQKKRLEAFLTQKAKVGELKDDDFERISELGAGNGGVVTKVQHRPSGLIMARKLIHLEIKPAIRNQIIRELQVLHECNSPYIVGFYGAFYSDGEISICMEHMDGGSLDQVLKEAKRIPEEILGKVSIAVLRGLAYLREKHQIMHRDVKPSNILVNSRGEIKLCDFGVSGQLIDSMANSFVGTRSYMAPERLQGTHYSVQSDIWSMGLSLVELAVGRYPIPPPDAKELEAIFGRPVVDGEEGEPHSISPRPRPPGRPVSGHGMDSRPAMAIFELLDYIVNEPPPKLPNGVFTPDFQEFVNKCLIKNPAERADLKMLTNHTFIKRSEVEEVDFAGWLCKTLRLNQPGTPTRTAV
T1 sequence (P40337 whole entry, looked up): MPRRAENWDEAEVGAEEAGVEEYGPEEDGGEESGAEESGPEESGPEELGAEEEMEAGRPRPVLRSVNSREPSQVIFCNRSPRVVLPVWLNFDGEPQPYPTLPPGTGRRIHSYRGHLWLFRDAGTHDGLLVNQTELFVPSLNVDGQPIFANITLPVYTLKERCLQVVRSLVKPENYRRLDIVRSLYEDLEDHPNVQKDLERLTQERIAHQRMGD

Data set [2] addresses von Hippel-Lindau disease tumor suppressor/Cullin-9 (Homo sapiens) (UniProt P40337+Q8IWT3). The data set is described as follows: Protac activity against VHL/cullin9 in human HT-29 cells harboring with BRAF V600E variant assessed as reduction in Cullin9 protein level at 0.1 uM after 10 hrs by LC-MS based Volcano plot analysis. Type of data set: cell-based.
The target in data set [3] is T1, von Hippel-Lindau disease tumor suppressor/Dual specificity mitogen-activated protein kinase kinase 2 (Homo sapiens). The data set is described as follows: Protac activity against VHL/MEK2 in human HT-29 cells harboring with BRAF V600E variant assessed as degradation of MEK2 by measuring MEK2 protein level at 0.3 uM pretreated with MEK1/2 inhibitor, PD0325901 for 2 hrs followed by incubation with compound for 10 hrs by Western blot analysis. It counts as cell-based.

In data set [4] the target is von Hippel-Lindau disease tumor suppressor/Leukocyte receptor cluster member 8 (Homo sapiens) (UniProt P40337+Q96PV6). Description: Protac activity against VHL/LENG8 in human HT-29 cells harboring with BRAF V600E variant assessed as reduction in LENG8 protein level at 0.1 uM after 10 hrs by LC-MS based Volcano plot analysis. Type of data set: cell-based.
Data set [5] has as its target T2, von Hippel-Lindau disease tumor suppressor/Dual specificity mitogen-activated protein kinase kinase 2/Dual specificity mitogen-activated protein kinase kinase 1 (Homo sapiens) (UniProt P36507+Q02750+P40337). The data set is described as follows: Protac activity against VHL/MEK1/2 in human SK-MEL-28 cells harboring with BRAF V600E variant assessed as phosphorylation of ERK at T202/Y204 residues at 0.3 uM pretreated with NEDD8-activating enzyme inhibitor, MLN4924 for 2 hrs followed by incubation with compound for 10 hrs by Western blot analysis. It counts as cell-based.

Data set [6] has as its target T1, von Hippel-Lindau disease tumor suppressor/Dual specificity mitogen-activated protein kinase kinase 2 (Homo sapiens). Description: Protac activity against VHL/MEK2 in human SK-MEL-28 cells harboring with BRAF V600E variant assessed as degradation of MEK2 by measuring reduction in MEK2 protein level at 0.1 to 0.3 uM after 2 hrs by Western blot analysis. It counts as cell-based.

Data set [7] deals with T2, von Hippel-Lindau disease tumor suppressor/Dual specificity mitogen-activated protein kinase kinase 2/Dual specificity mitogen-activated protein kinase kinase 1 (Homo sapiens). Description: Protac activity against VHL/MEK1/2 in human HT-29 cells harboring with BRAF V600E variant assessed as reduction in phosphorylation of ERK at T202/Y204 residues after 24 hrs by Western blot analysis. Type of data set: cell-based.

Data set [8] has as its target T3, von Hippel-Lindau disease tumor suppressor/Dual specificity mitogen-activated protein kinase kinase 1 (Homo sapiens) (UniProt Q02750+P40337). The data set is described as follows: Protac activity against VHL/MEK1 in human HT-29 cells harboring with BRAF V600E variant assessed as degradation of MEK1 by measuring MEK1 protein level at 0.3 uM pretreated with proteasome inhibitor, MG-132 for 2 hrs followed by incubation with compound for 10 hrs by Western blot analysis. It counts as cell-based.

Data set [9] in a line: Plasma concentration in Swiss albino mouse at 50 mg/kg, ip measured after 8 hrs by LC-MS/MS analysis. Type of data set: ADME, organism-based.
In data set [10] the target is T1, von Hippel-Lindau disease tumor suppressor/Dual specificity mitogen-activated protein kinase kinase 2 (Homo sapiens). Description: Protac activity against VHL/MEK2 in human HT-29 cells harboring with BRAF V600E variant assessed as degradation of MEK2 by measuring reduction in MEK2 protein level at 0.1 to 0.3 uM after 2 hrs by Western blot analysis. Type of data set: cell-based.

The target of data set [11] is T3, von Hippel-Lindau disease tumor suppressor/Dual specificity mitogen-activated protein kinase kinase 1 (Homo sapiens). The data set is described as follows: Protac activity against VHL/MEK1 in human HT-29 cells harboring with BRAF V600E variant assessed as degradation of MEK1 by measuring reduction in MEK1 protein level at 0.1 uM after 10 hrs by LC-MS based Volcano plot analysis. It counts as cell-based.

In another data set the test system is SK-MEL-28. The data set is described as follows: Effect on total ERK protein expression in human SK-MEL-28 cells at 0.001 to 5 uM after 24 hrs by Western blot analysis. Type of data set: functional, cell-based.
A short description of data set [12]: Ratio of Plasma concentration in Swiss albino mouse at 50 mg/kg, ip measured after 8 hrs to GI50 for antiproliferative activity against human UACC257 cells. Type of data set: organism-based. The conditions noted are these: in vivo.
In data set [13] the target is T2, von Hippel-Lindau disease tumor suppressor/Dual specificity mitogen-activated protein kinase kinase 2/Dual specificity mitogen-activated protein kinase kinase 1 (Homo sapiens). Description: Protac activity against VHL/MEK1/2 in human HT-29 cells harboring with BRAF V600E variant assessed as phosphorylation of ERK at T202/Y204 residues at 0.3 uM pretreated with MEK1/2 inhibitor, PD0325901 for 2 hrs followed by incubation with compound for 10 hrs by Western blot analysis. Type of data set: cell-based.

Data set [14] has as its target T3, von Hippel-Lindau disease tumor suppressor/Dual specificity mitogen-activated protein kinase kinase 1 (Homo sapiens). Description: Protac activity against VHL/MEK1 in human HT-29 cells harboring with BRAF V600E variant assessed as degradation of MEK1 by measuring reduction in MEK1 protein level at 0.3 uM after 4 hrs by Western blot analysis relative to control. Type of data set: cell-based. Further details: scale not given: the % may be the effect or the level left.

The target in data set [15] is T2, von Hippel-Lindau disease tumor suppressor/Dual specificity mitogen-activated protein kinase kinase 2/Dual specificity mitogen-activated protein kinase kinase 1 (Homo sapiens). The data set is described as follows: Protac activity against VHL/MEK1/2 in human HT-29 cells harboring with BRAF V600E variant assessed as phosphorylation of MEK at S218/222 residues at 0.3 uM pretreated with proteasome inhibitor, MG-132 for 2 hrs followed by incubation with compound for 10 hrs by Western blot analysis. Type of data set: cell-based.

For data set [16], the target named is T1, von Hippel-Lindau disease tumor suppressor/Dual specificity mitogen-activated protein kinase kinase 2 (Homo sapiens). Description: Protac activity against VHL/MEK2 in human HT-29 cells harboring with BRAF V600E variant assessed as degradation of MEK2 by measuring MEK2 protein level at 0.3 uM pretreated with NEDD8-activating enzyme inhibitor, MLN4924 for 2 hrs followed by incubation with compound for 10 hrs by Western blot analysis. Type of data set: cell-based.

Data set [17] concerns the target T2, von Hippel-Lindau disease tumor suppressor/Dual specificity mitogen-activated protein kinase kinase 2/Dual specificity mitogen-activated protein kinase kinase 1 (Homo sapiens). The data set is described as follows: Protac activity against VHL/MEK1/2 in human HT-29 cells harboring with BRAF V600E variant assessed as phosphorylation of MEK at S218/222 residues at 0.3 uM pretreated with MEK1/2 inhibitor, PD0325901 for 2 hrs followed by incubation with compound for 2 hrs by Western blot analysis. It counts as cell-based.

A further data set concerns HT-29. The data set is described as follows: Effect on total ERK protein expression in human HT-29 cells at 0.001 to 5 uM after 24 hrs by Western blot analysis. Type of data set: functional, cell-based.
The target in data set [18] is T3, von Hippel-Lindau disease tumor suppressor/Dual specificity mitogen-activated protein kinase kinase 1 (Homo sapiens). The data set is described as follows: Protac activity against VHL/MEK1 in human SK-MEL-28 cells harboring with BRAF V600E variant assessed as degradation of MEK1 at 3 to 5 uM after 24 hrs by Western blot analysis. Type of data set: cell-based.
Data set [19] concerns the target T1, von Hippel-Lindau disease tumor suppressor/Dual specificity mitogen-activated protein kinase kinase 2 (Homo sapiens). Description: Protac activity against VHL/MEK2 in human SK-MEL-28 cells harboring with BRAF V600E variant assessed as degradation of MEK2 by measuring MEK2 protein level at 0.3 uM pretreated with NEDD8-activating enzyme inhibitor, MLN4924 for 2 hrs followed by incubation with compound for 10 hrs by Western blot analysis. Type of data set: cell-based.

For data set [20], the target named is T3, von Hippel-Lindau disease tumor suppressor/Dual specificity mitogen-activated protein kinase kinase 1 (Homo sapiens). Description: Protac activity against VHL/MEK1 in human COLO205 cells harboring with BRAF V600E variant assessed as degradation of MEK1 at 3 to 5 uM after 24 hrs by Western blot analysis. Type of data set: cell-based.
The target in data set [21] is T1, von Hippel-Lindau disease tumor suppressor/Dual specificity mitogen-activated protein kinase kinase 2 (Homo sapiens). Description: Protac activity against VHL/MEK2 in human HT-29 cells harboring with BRAF V600E variant assessed as degradation of MEK2 by measuring reduction in MEK2 protein level at 0.1 uM after 10 hrs by LC-MS based Volcano plot analysis. It counts as cell-based.

The target in data set [22] is T3, von Hippel-Lindau disease tumor suppressor/Dual specificity mitogen-activated protein kinase kinase 1 (Homo sapiens). The data set is described as follows: Protac activity against VHL/MEK1 in human SK-MEL-28 cells harboring with BRAF V600E variant assessed as degradation of MEK1 by measuring MEK1 protein level at 0.3 uM pretreated with proteasome inhibitor, MG-132 for 2 hrs followed by incubation with compound for 10 hrs by Western blot analysis. It counts as cell-based.

SMILES strings stand for the structures. Active and inactive are the calls of the source. No cut-off for these calls is given here.

T3 sequence (P40337 whole entry, looked up): as above
T3 sequence (Q02750 whole entry, looked up): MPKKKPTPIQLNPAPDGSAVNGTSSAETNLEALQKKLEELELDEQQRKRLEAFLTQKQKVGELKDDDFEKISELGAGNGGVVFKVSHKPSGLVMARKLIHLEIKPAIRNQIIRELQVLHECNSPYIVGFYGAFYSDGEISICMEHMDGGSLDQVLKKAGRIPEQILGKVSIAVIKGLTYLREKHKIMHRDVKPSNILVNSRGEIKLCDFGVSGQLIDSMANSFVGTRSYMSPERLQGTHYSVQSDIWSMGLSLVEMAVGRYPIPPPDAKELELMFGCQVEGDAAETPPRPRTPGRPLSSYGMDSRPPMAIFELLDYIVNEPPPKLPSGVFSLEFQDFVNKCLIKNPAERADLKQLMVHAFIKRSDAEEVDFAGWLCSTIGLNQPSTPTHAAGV
T2 sequence (P36507 whole entry, looked up): as the sequence (P36507 whole entry, looked up) above
T2 sequence (P40337 whole entry, looked up): as the sequence (P40337 whole entry, looked up) above
T2 sequence (Q02750 whole entry, looked up): as the sequence (Q02750 whole entry, looked up) above
Sequence of von Hippel-Lindau disease tumor suppressor/Cullin-9 (Homo sapiens) (P40337 whole entry, looked up): as the sequence (P40337 whole entry, looked up) above
Sequence of von Hippel-Lindau disease tumor suppressor/Cullin-9 (Homo sapiens) (Q8IWT3 whole entry, looked up): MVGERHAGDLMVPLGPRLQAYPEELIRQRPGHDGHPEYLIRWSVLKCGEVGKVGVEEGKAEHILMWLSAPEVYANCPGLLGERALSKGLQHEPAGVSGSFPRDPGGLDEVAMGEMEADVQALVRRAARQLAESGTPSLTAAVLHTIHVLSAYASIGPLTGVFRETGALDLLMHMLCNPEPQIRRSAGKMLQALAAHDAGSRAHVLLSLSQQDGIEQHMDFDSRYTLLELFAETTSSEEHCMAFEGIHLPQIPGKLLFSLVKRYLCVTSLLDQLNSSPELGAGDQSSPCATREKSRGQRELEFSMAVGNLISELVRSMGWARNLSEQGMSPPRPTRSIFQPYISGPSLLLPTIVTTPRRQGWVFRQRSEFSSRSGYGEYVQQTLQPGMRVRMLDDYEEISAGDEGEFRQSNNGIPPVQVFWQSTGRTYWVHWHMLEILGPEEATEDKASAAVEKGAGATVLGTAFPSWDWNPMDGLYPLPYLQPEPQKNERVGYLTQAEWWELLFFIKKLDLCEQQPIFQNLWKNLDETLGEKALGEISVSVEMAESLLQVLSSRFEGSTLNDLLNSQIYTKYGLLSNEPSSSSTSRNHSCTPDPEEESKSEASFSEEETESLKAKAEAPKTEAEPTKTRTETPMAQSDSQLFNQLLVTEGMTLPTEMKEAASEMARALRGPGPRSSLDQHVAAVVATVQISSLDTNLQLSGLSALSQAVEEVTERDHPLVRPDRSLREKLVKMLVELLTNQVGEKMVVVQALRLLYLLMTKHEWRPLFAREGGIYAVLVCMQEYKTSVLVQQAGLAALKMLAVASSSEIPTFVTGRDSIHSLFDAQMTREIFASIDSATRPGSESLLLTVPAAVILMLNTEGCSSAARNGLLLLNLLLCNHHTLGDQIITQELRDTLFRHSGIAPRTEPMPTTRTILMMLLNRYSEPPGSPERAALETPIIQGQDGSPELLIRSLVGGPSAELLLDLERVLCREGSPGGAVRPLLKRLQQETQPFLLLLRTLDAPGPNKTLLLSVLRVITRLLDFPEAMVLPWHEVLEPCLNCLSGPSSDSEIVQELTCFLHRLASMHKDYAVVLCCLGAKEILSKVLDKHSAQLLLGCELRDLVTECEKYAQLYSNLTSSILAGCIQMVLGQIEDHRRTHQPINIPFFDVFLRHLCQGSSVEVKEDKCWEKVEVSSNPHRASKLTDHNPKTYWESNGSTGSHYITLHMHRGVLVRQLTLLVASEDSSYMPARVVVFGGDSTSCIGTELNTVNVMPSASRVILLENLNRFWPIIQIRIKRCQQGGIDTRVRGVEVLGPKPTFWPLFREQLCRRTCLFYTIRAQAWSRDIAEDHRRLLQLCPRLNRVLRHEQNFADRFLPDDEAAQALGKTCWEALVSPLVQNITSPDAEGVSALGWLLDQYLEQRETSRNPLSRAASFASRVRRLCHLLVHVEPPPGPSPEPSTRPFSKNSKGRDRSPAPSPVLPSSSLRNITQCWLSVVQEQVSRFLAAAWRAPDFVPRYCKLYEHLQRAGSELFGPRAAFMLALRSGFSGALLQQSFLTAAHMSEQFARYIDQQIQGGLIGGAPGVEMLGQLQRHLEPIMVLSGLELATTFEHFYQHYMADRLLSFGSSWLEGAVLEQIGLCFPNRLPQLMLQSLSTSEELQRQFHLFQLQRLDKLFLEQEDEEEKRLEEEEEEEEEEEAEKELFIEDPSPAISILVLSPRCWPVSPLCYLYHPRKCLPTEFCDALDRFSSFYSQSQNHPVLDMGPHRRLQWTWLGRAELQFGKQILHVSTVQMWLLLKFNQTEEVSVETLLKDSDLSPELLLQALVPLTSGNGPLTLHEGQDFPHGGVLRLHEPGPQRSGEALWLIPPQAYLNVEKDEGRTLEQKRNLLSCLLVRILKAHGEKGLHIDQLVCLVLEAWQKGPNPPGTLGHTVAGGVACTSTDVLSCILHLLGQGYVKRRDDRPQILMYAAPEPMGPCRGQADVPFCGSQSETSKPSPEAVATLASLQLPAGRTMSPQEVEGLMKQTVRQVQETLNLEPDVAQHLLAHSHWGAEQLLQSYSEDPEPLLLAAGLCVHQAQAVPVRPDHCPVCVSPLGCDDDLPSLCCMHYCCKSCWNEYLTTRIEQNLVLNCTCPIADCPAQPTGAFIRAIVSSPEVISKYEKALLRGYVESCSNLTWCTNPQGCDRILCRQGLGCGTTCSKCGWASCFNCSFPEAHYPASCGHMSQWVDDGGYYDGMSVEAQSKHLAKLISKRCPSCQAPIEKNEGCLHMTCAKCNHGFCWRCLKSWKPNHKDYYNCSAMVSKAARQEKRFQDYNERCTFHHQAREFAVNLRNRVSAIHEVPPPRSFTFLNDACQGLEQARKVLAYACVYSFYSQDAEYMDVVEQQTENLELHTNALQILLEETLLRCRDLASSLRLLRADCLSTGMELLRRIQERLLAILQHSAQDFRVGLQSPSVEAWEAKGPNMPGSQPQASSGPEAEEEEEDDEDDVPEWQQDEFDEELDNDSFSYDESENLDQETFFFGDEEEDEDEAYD

For `Cc1ncsc1-c1ccc([C@H](C)NC(=O)[C@@H]2C[C@@H](O)CN2C(=O)[C@@H](NC(=O)CCCCCCCCCCNCCCONC(=O)c2ccc(F)c(F)c2Nc2ccc(I)cc2F)C(C)(C)C)cc1`, the result in data set [1], in [2], in data set [4], in data set [6], in data set [10] and in [11] was Active. Moreover, the result in data set [18], in [20] and in data set [21] was Active. The outcome (in [3]; in data set [5]; in data set [8]; with SK-MEL-28; in [13]; in data set [15]) was inactive. Further, the result (in [16]; in data set [17]; in the data set on HT-29; in [19]; in [22]) was inactive. In addition, the Activity entry in data set [7] was “Dose-dependent effect”; in [14], above 50%. For the same compound, the concentration at 8 h in data set [9] was found to be 710 nM. The Ratio in data set [12] is 3 to 20.
